Drawing on ChEMBL document CHEMBL1201862, “PubChem BioAssay data set” (2004), this text covers IC50, AC50 and EC50 for seven compounds.

The target in data set [1] is T1, Disintegrin and metalloproteinase domain-containing protein 17 (Homo sapiens, UniProt P78536). The data set can be described thus: inhibition of ADAM17 substrate cleavage – biochemical, quenched FRET substrate, counter-screen for ADAM10 exosite inhibitor project, dose response (AID 743253).
Data set [2] concerns the target T2, Protein skinhead-1 (Caenorhabditis elegans, UniProt P34707).
T2 sequence (P34707 whole entry): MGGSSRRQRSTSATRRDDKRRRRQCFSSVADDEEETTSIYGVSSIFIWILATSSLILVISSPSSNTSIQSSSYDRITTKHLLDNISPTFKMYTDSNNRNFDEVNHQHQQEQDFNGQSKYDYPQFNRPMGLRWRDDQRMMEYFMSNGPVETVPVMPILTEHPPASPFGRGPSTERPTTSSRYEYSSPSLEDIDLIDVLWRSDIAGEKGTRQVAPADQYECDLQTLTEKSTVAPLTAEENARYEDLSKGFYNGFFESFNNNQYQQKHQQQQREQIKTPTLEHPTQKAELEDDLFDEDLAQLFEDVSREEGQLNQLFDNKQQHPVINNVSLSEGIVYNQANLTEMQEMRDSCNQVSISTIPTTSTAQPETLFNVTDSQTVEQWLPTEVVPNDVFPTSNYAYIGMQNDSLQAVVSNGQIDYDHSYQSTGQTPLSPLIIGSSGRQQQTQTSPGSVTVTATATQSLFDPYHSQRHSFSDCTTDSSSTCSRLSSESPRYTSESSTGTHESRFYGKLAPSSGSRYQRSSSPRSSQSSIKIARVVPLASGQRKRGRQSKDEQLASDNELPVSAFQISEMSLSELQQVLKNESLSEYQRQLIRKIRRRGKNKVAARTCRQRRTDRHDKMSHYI
It counts as functional.

The target of data set [3] is T1, Disintegrin and metalloproteinase domain-containing protein 17. The data set can be described thus: exosite inhibitors of ADAM17, dose response, biochemical (AID 743260).
The nature of data set [4]: potency of ADAM10 substrate cleavage blockers – biochemical, QFRET, dose response (AID 743254).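 Further: ADAM10 enzyme with the DM2 quenched FRET peptide as substrate; EDANS fluorescence gain as the protease cuts the substrate; inhibitor potency against ADAM10 proteolytic activity.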
Data set [5] can be described thus: inhibition of ADAM10 peptide cleavage – biochemical, FRET peptide substrate, recombinant human ADAM10, selectivity assay for ADAM17 exosite inhibitor project, dose response (AID 743259).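 Further: ADAM10 enzyme cleaving a FRET peptide substrate.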
In data set [6] the target is Cytochrome P450 2C9 (Homo sapiens, UniProt P11712).
The target of data set [7] is Cytochrome P450 3A4 (Homo sapiens, UniProt P08684).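 Further: CYP3A4 tested as one member of a cytochrome P450 panel screen.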
Data set [8] has as its target Kallikrein-7 (Homo sapiens, UniProt P49862). Put plainly: Fluorescence Intensity-based biochemical primary high throughput dose response assay to identify activators of kallikrein-7 (K7) zymogen.
Data set [9] deals with T3, 1-phosphatidylinositol 4,5-bisphosphate phosphodiesterase beta-3 (Homo sapiens, UniProt Q01970).
T3 sequence (Q01970 whole entry): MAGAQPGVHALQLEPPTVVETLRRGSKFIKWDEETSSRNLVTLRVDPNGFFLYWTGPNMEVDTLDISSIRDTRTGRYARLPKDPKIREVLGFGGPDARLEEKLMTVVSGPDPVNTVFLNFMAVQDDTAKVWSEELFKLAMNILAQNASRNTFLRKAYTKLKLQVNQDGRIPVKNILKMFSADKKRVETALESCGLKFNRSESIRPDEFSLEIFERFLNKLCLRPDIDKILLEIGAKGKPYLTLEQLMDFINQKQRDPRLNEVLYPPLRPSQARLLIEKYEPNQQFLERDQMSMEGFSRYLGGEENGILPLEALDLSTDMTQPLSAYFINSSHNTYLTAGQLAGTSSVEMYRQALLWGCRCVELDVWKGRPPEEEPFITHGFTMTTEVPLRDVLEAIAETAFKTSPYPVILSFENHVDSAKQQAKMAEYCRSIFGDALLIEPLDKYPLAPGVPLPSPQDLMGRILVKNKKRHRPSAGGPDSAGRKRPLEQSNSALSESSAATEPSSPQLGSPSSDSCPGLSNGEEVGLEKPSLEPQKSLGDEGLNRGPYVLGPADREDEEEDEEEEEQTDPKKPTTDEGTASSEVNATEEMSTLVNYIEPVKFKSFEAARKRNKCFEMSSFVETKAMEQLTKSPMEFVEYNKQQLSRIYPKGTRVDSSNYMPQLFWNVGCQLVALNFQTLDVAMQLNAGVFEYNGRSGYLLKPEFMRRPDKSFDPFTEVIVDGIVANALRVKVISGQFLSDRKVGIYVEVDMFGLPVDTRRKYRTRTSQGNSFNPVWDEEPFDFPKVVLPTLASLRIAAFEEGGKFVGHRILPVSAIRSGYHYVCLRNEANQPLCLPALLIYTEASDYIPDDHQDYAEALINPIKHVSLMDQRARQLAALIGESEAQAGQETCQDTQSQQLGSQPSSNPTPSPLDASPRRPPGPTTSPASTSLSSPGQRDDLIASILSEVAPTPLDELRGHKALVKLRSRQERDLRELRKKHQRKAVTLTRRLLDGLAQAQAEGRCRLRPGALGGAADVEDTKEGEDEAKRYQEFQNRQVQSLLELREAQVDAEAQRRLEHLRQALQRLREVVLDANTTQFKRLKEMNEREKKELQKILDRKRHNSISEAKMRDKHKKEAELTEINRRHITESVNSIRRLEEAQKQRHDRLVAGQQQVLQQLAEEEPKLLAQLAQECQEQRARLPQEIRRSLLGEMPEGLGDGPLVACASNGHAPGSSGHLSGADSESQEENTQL
The data set can be described thus: Fluorescence-based biochemical high throughput dose response assay to identify inhibitors of phospholipase C isozymes (PLC-B3).

Data set [10] deals with T4, 1-phosphatidylinositol 4,5-bisphosphate phosphodiesterase gamma-1 (Homo sapiens, UniProt P19174).
T4 sequence (P19174 whole entry): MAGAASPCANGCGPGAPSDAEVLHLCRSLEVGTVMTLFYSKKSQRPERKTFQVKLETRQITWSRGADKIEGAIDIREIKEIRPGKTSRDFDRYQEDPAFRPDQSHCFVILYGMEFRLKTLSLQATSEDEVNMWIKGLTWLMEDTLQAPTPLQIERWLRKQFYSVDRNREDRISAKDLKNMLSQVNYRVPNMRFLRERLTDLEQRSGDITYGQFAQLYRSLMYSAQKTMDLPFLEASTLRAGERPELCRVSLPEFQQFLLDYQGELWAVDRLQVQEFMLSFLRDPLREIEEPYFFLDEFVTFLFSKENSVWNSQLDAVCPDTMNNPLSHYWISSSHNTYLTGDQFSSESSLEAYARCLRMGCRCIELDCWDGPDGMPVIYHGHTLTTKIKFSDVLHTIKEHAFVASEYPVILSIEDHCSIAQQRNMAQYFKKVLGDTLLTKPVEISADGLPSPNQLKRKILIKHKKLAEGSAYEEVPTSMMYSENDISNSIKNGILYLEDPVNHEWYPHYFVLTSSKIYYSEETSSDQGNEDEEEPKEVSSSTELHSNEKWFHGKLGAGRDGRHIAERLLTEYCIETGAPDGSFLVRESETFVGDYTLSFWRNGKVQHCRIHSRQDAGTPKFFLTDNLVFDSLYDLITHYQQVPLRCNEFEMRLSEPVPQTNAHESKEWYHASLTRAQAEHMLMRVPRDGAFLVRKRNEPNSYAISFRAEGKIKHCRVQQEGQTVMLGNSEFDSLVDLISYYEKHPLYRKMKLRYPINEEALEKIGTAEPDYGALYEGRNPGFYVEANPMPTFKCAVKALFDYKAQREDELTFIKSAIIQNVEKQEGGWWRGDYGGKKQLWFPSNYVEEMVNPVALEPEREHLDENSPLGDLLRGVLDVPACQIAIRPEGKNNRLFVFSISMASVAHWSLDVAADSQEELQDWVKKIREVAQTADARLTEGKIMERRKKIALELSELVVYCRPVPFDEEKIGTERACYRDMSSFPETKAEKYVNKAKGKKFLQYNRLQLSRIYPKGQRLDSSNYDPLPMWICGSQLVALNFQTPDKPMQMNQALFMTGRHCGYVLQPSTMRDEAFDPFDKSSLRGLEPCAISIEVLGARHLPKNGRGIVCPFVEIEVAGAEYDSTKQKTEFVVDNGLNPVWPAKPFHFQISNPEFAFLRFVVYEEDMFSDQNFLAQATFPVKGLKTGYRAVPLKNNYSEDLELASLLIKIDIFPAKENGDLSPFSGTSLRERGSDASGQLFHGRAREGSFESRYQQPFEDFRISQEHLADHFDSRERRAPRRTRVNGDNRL
Put plainly: Counterscreen for inhibitors of phospholipase C isozymes (PLC-B3): Fluorescence-based biochemical high throughput dose response assay to identify inhibitors of phospholipase C isozymes (PLC-gamma1). A general note: Counterscreens check selectivity or assay interference.

The target of data set [11] is T5, Nucleotide-binding oligomerization domain-containing protein 1 (Homo sapiens, UniProt Q9Y239).
T5 sequence (Q9Y239 whole entry): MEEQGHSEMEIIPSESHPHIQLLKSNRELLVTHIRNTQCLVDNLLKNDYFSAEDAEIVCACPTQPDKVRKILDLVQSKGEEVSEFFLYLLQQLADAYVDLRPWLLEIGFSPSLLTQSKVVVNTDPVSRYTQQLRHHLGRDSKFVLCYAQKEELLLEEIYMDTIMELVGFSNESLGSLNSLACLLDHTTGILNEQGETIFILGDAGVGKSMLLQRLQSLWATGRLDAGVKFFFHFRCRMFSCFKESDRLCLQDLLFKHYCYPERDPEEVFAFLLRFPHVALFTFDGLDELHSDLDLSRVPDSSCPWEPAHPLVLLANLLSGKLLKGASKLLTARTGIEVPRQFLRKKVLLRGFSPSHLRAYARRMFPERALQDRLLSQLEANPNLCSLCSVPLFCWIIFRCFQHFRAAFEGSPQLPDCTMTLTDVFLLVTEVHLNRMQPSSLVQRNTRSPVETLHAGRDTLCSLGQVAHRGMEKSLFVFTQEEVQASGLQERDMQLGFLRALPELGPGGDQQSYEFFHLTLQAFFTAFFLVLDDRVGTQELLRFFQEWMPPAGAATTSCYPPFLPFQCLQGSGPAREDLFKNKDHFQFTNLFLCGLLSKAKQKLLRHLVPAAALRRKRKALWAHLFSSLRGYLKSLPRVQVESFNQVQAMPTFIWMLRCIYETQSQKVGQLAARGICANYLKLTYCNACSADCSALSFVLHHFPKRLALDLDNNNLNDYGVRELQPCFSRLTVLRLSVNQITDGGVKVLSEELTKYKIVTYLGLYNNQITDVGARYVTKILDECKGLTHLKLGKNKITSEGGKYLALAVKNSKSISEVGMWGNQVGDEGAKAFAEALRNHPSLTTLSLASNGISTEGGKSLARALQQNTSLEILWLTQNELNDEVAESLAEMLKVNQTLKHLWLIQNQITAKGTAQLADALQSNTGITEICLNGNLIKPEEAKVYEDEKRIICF
The data set can be described thus: blockers of NOD1 pathway activity – revised, SAR follow-up (AID 2333). It counts as functional.

Data set [12] deals with HEK293. The data set can be described thus: inhibition of NOD1-driven NF-kB reporter – cell-based, luminescence, uHTS, primary screen (AID 1578). It counts as functional. The conditions noted are these: Homo sapiens.
For data set [13], the target named is Tumor necrosis factor (Homo sapiens, UniProt P01375). Put plainly: analog potency on TNFa NF-kB signaling – cell-based, revised, SAR follow-up (AID 2337). In kind it is functional.
Data set [14] concerns the target Nucleotide-binding oligomerization domain-containing protein 2 (Homo sapiens, UniProt Q9HC29). Put plainly: inhibition of NOD2-driven NF-kB reporter – cell-based, luminescence, uHTS, HEK293 (AID 1566). In kind it is functional.
Data set [15] concerns the target Major prion protein (Homo sapiens, UniProt P04156). In kind it is functional, cell-based.
The subject of data set [16] is HEK293. The data set can be described thus: cells. It counts as functional, cell-based. The settings on record: Homo sapiens.
Data set [17] deals with HEK293. The data set can be described thus: cells. It counts as functional, cell-based. The conditions noted are these: Homo sapiens. This is another data set of the same source.
Data set [18] is described as follows: cells.
Data set [19] deals with HEK293. Put plainly: cells. In kind it is functional, cell-based. The settings on record: Homo sapiens. The source holds these as a separate data set.
The target of data set [20] is Genome polyprotein (dengue virus type 2, UniProt P29990). The data set can be described thus: flavivirus cap methylation enzyme inhibition – biochemical, confirmation dose response, primary screen (AID 588689). In kind it is functional.
Data set [21] deals with HEK293. The data set can be described thus: cells. The settings on record: Homo sapiens.
Data set [22] relates to HEK293. The data set can be described thus: NOD2 signaling inhibitors in MDP-stimulated cells, cell-based, uHTS, luminescence (AID 2001). It counts as functional. The settings on record: Homo sapiens.

Activity calls are given as the source filed them.

As for `O=C(c1cccs1)N1CCc2c([nH]c3ccccc23)C1c1ccc(Cl)cc1` (stereo unspecified), the IC50 (commonly the concentration that inhibits the measured activity by half) in data set [1] is > 69.5 µM (inactive); in data set [2] it was > 100 µM (inactive); in data set [3] it was > 69.5 µM (inactive); in data set [4] it was > 69.5 µM (inactive); in data set [5], 32.4 µM (inactive).

Consider `C=CCNc1sc(C(=O)c2ccc(C)cc2)c(N)c1C#N`, for which the AC50 (as a rule, the concentration at which the activity in the assay is half-maximal) was “inconclusive” in data set [6] and 31.6 µM (inconclusive) in data set [7]. In [8], the 50% effective concentration (EC50) (as a rule, the concentration that produces a half-maximal response) is 9.46 µM (active).

In the case of `Cc1ccc(-c2cc(C(=O)NN=Cc3cccc(OCc4ccccc4)c3)[nH]n2)cc1C`, the IC50 in data set [3] and in [5] was > 69.5 µM (inactive) each time.

With `Oc1c2nc3ccccc3c-2ncn1CCN1CCOCC1`, the IC50 in data set [9] and in data set [10] was > 122 µM (inactive) each time.

Take `O=C(C[C@H]1C[C@H](C(=O)N2CCCCC2)[C@@]2(CCc3ccccc3)c3[nH]c4cc(-c5ccco5)ccc4c3CCN2C1=O)NCCN1CCOCC1`: the concentration giving a half-maximal response (EC50) in data set [8] is 8.82 µM (active).

Regarding `COc1cc(NC(=O)COc2ccccc2Cl)ccc1NC(=O)c1cccs1`, the EC50 in data set [8] was 8.31 µM (active).

In the case of `COc1cc(C(=O)Nc2scc(-c3ccc(Br)cc3)c2C(=O)O)cc(OC)c1OC`, the IC50 in data set [11] was 5.83 µM (active); in data set [13] it was 6.88 µM (active); in data set [15], 5.71 µM (active); in data set [16], > 20 µM (inactive); in [17], > 20 µM (inactive); in [18] it was > 138 µM (inactive). For the same compound, the half-inhibitory concentration (IC50) in [19] was 19 µM (active); in data set [20], 58 µM (active); in [21], 13.6 µM (active); in data set [22], 13.2 µM (inactive). The EC50 in data set [12] was 3.97 µM (active); in [14], 13.9 µM (active).
